Data on two compounds can be found in patent US11066693B2, “Methods for diagnosing LHRH or hCG/LH receptor expressing tumors, cancers and neoplasias” (ESPERANCE PHARMACEUTICALS, INC., priority 2009, dated 2021).

pIC50: −log10 of the molar value. Ends that are not written are not given here.

Series [1] concerns MDA-MB-231 human breast cancer cell line. Nature of the series: In vitro cytotoxicity, MTT cell viability assay. In kind it is cell-based. Here is the method: Incubations were conducted for 24 h at 37° C.
For orientation: Tetrazolium dyes change colour on reduction, which living cells bring about.

Series [2] concerns LNCaP prostate cancer cell line. The conditions noted are these: read-out: Cytotoxicity evaluated as IC50 value, 24 h at 37° C., MTT.
Procedure: (§1) Studies were designed to test receptor specificity, correlation of sensitivity to LHRH receptor expression and initial efficacy kinetics in vitro by comparing targeted kinetics to untargeted kinetics. […] Cytotoxicity was evaluated as IC50 value for each cell line.
(§2) Cell cultures were prepared in 96 well plates using 10,000 cells/well and were allowed to attach for 48 hours. […] Incubations were conducted for 24 h at 37° C. Cell viability was determined using formazan conversion assays (MTT assays). Controls contained USP saline or 0.1% TritonX-100™ as reference for 0 and 100% cell death, respectively.
(§3) Data were processed and analyzed using Graph Pad Prizm 4™ software (Graph Pad Prizm, Inc). Statistical analysis for significance was determined by a two-tailed Student's T-test.
Series [3] concerns MDA-MB-4355 breast cancer cell line. To be noted: read-out: Cytotoxicity evaluated as IC50 value; MDA-MB-4355, highest LHRH receptor capacity, 24 h at 37° C., MTT.
Procedure: as §1, §2, §3
For series [4], the system named is PC-3 prostate cancer cell line. To be noted: read-out: Cytotoxicity evaluated as IC50 value; PC-3, 24 h at 37° C., MTT.
Procedure: as §1, §2, §3
The subject of series [5] is AN3-CA human endometrial cancer cell line. To be noted: read-out: Cytotoxicity evaluated as IC50 value, 24 h at 37° C., MTT.
Procedure: as §1, §2, §3
Series [6] has as its system OVCAR-3 ovarian cancer cell line. The conditions noted are these: read-out: Cytotoxicity evaluated as IC50 value; OVCAR-3, 24 h at 37° C., MTT.
Procedure: as §1, §2, §3
Series [7] has as its system SKOV-3 LHRH receptor negative ovarian cancer cell line. To be noted: read-out: Cytotoxicity evaluated as IC50 value, 24 h at 37° C., MTT.
Procedure: as §1, §2, §3

For the compound `N.N.[Cl][Pt][Cl]` [cisplatinum, reference compound], the “Sensitivity of cell line to the drug” value in series [1] (MDA-MB-231, multi drug resistant) is reported as “insensitive”.
The term pIC50 denotes −log10 of the IC50, conventionally taken in molar units. KFAKFAKKFAKFAKKFAKQHWSYGLRPG [EP-100]: the pIC50 in series [1] (MDA-MB-231 (ER, Her2/neu, PR negative, multi drug resistant), 24 h at 37° C., MTT, read-out: Cytotoxicity evaluated as IC50 value) was 5.26; in series [2], 5.82; in series [3], 6.10; in series [4] it was 5.26; in series [5], 5.48; in series [6] it was 5.52. Further, in series [7], the pIC50 is under 5.00.
